One test relates to macular degeneration. The test can be described thus: Clinical case: sublingual progesterone in a patient with macular degeneration. The test is classed as in vivo, human. The procedure:
An adult human presented with macular degeneration. They had visual acuity of 20/200 in each eye. After the use of sublingual progesterone, one application, their vision improved to 20/100 and 20/40. […] They were evaluated for hormone allergy therapy by assessing their anti-hormone antibodies and found to have elevated levels of IgE, IgG, and IgM antibodies to progesterone.
The subject then received progesterone 1:10 sublingual drops which they continue to use.

For test [1], the system named is serum anti-estrogen IgE antibodies. The test can be described thus: Competition ELISA: absorption of serum IgE anti-estrogen with specific and non-specific antigens. The settings on record: for Absorption of serum IgE antibodies, in words: antigen added to the liquid phase; for Inhibition of IgE anti-estrogen binding, range over samples: antigen in liquid phase, summary of Table 3; for Percent inhibition after absorption (IgE) / Serum anti-estrogen IgE level after absorption: antigen 250 μg/mL; for Serum anti-estrogen IgE level after absorption: optical density at 405 nm. The format is binding, human. On the procedure: (§1) Enzyme-linked immunosorbent assay (ELISA) was used for testing antibodies against estrogen and progesterone in the sera of patients with premenstrual asthma and with control subjects. […] Plates were incubated overnight at 4° C. and then washed three times with […] of Tris-buffered saline (TBS) containing 0.05% Tween 20, pH 7.4. […] Plates were incubated for 2 h (for IgG and IgM) and overnight (for IgE), and then washed four times with PBS-Tween 20. Alkaline-phosphatase-conjugated goat anti-human IgG, IgM or IgE F(ab′)2 fragment at optimal dilution of 1:700 (IgG); 1:500 (IgM) and 1:250 (IgE) was added to corresponding wells. The plates were then incubated for an additional 2 h at room temperature. After washing five times with TBS-Tween buffer, the enzyme reaction was started by adding 100 μl of para-nitrophenylphosphate in 0.1 mL of diethanolamine buffer (1 mg/ml) containing 1 mM MgCl2 and sodium azide, pH 9.8. The reaction was stopped 45 minutes later with 50 μl of 1 N NaOH. The optical density was read at 405 nm (OD405) with a microtiter reader.
(§2) 100 μl of serum diluent buffer was added to all wells. […] After a 60-minute incubation, 100 μl serum anti-estrogen or anti-progesterone was added to all wells. […] Results were calculated as a percentage of inhibition in antigen-antibody reaction.
(§3) To examine whether antibodies to estrogen or progesterone are specific or cross-reactive, competition ELISA was performed by adding specific and non-specific antigens in liquid phase and examined prevention of serum antibody binding to the antigen in solid phase. […] This cross-reaction between estrogen and progesterone antibodies may be due to structural similarities between these two hormones.

In test [2] the test system is serum anti-estrogen IgG antibodies. Briefly: Competition ELISA: absorption of serum IgG anti-estrogen with specific and non-specific antigens. The format is binding, human. The settings on record: for Absorption of serum IgG antibodies, in words: antigen added to the liquid phase; for Inhibition of anti-estrogen binding to estrogen (IgG), range over samples: antigen in liquid phase, Table 2; for Percent inhibition after absorption (IgG) / Serum anti-estrogen IgG level after absorption: antigen 250 μg/mL; for Serum anti-estrogen IgG level after absorption: optical density at 405 nm. The procedure:
as §1, §2, §3

[3] abbreviates: serum sample 1, before absorption 2.15.
Where [4] appears, read: serum sample 2, before absorption 1.66.
The mark [5] stands for this setting: serum sample 3, before absorption 1.34.
Where [6] appears, read: serum sample 1, before absorption 1.83.
Where [7] appears, read: serum sample 2, before absorption 1.25.
Where [8] appears, read: serum sample 3, before absorption 0.76.

Several values for one entry are separate records, joined by “and”; a condition that tells them apart may be missing. Equal entries are not always repeated.

With `CC(=O)[C@H]1CC[C@H]2[C@@H]3CCC4=CC(=O)CC[C@]4(C)[C@H]3CC[C@]12C` [progesterone], the “Visual acuity after treatment” value in the test on macular degeneration (adult human female, sublingual, one application, baseline 20/200 in each eye) is 20/100 and 20/40. The “Ophthalmologist's assessment” value with macular degeneration (return visit two weeks later, as reported by the patient) was “remarkably improved”.

With “En: Estrogen (estradiol) bound to bovine serum albumin, purchased from Sigma; specific antigen in competition ELISA”, in test [1], the “Absorption of serum IgE antibodies, in words” value is recorded as “significantly absorbed”. Moreover, the “Inhibition of IgE anti-estrogen binding, range over samples” value in test [1] is on record as 54-62%. In addition, the “Percent inhibition after absorption (IgE)” value in test [1] (serum sample 1) was “(55%)”; in test [1] (serum sample 2), “(54%)”; in test [1] (serum sample 3), “(62%)”. Further, the “Serum anti-estrogen IgE level after absorption” value (shortened to “Serum anti-estrogen IgE level”) in test [1] (setting [3]) came out at 0.96; in test [1] (setting [4]), 0.77; in test [1] (setting [5]) it was 0.51. Moreover, the “Absorption of serum IgG antibodies, in words” value in test [2] is recorded as “significantly absorbed”. In test [2], the “Inhibition of anti-estrogen binding to estrogen (IgG), range over samples” value is recorded as 52-67%. Also, the “Percent inhibition after absorption (IgG)” value in test [2] (serum sample 1) is “(67%)”; in test [2] (serum sample 2), “(59%)”; in test [2] (serum sample 3) it was “(52%)”. Also, the “Serum anti-estrogen IgG level after absorption” value (shortened to “Serum anti-estrogen IgG level”) in test [2] (setting [6]) was 0.61; in test [2] (setting [7]), 0.52; in test [2] (setting [8]), 0.37.

As for “Pn: Progesterone bound to bovine serum albumin, purchased from Sigma; antigen in competition ELISA”, the “Absorption of serum IgE antibodies, in words” value in test [1] is listed as “significantly absorbed”. Besides, in test [1], the “Inhibition of IgE anti-estrogen binding, range over samples” value is on record as 37-43%. Moreover, the “Percent inhibition after absorption (IgE)” value is “(37%)” in test [1] (serum sample 1) and “(43%)” in test [1] (serum sample 3). The “Serum anti-estrogen IgE level” value amounted to 1.35 in test [1] (setting [3]), 0.98 in test [1] (setting [4]) and 0.76 in test [1] (setting [5]). In addition, in test [2], the “Absorption of serum IgG antibodies, in words” value was “significantly absorbed”. Further, the “Inhibition of anti-estrogen binding to estrogen (IgG), range over samples” value in test [2] is on record as 41-52%. Moreover, the “Percent inhibition after absorption (IgG)” value was “(52%)” in test [2] (serum sample 1), “(45%)” in test [2] (serum sample 2) and “(41%)” in test [2] (serum sample 3). Further, the “Serum anti-estrogen IgG level” value is 0.87 in test [2] (setting [6]), 0.69 in test [2] (setting [7]) and 0.45 in test [2] (setting [8]).

Regarding bovine serum albumin [BSA], the “Absorption of serum IgE antibodies, in words” value in test [1] was “did not absorb”. In addition, the results for the “Serum anti-estrogen IgE level” value in test [1] (setting [3]), in test [1] (setting [4]) and in test [1] (setting [5]) were 2.24, 1.53 and 1.26, respectively. In test [2], the “Absorption of serum IgG antibodies, in words” value was “did not absorb”. The “Serum anti-estrogen IgG level” value came to 1.79 in test [2] (setting [6]), 1.13 in test [2] (setting [7]) and 0.81 in test [2] (setting [8]).

B1: myelin basic protein (protein, UniProt P02686 1-304, looked up)
Myelin basic protein: MGNHAGKRELNAEKASTNSETNRGESEKKRNLGELSRTTSEDNEVFGEADANQNNGTSSQDTAVTDSKRTADPKNAWQDAHPADPGSRPHLIRLFSRDAPGREDNTFKDRPSESDELQTIQEDSAATSESLDVMASQKRPSQRHGSKYLATASTMDHARHGFLPRHRDTGILDSIGRFFGGDRGAPKRGSGKDSHHPARTAHYGSLPQKSHGRTQDENPVVHFFKNIVTPRTPPPSQGKGRGLSLSRFSWGAEGQRPGFGYGGRASDYKSAHKGFKGVDAQGTLSKIFKLGGRDSRSGSPMARR
Regarding B1, the “Absorption of serum IgE antibodies, in words” value in test [1] is listed as “did not absorb”. For the same molecule, the “Serum anti-estrogen IgE level” value came out at 2.05 in test [1] (setting [3]), 1.73 in test [1] (setting [4]) and 1.11 in test [1] (setting [5]). The “Absorption of serum IgG antibodies, in words” value in test [2] is “did not absorb”. In addition, the “Serum anti-estrogen IgG level” value in test [2] (setting [6]) was determined as 1.67; in test [2] (setting [7]), 1.13; in test [2] (setting [8]), 0.68.

Source of the values: patent US20050239757A1, “Hormone treatment of macular degeneration” (priority 2004, published 2005).
